The record followed here is ChEMBL document CHEMBL1156911 (Bioorg Med Chem, 2010).

Assay [1] concerns the target T1, 11-beta-hydroxysteroid dehydrogenase 1 (Homo sapiens, UniProt P28845). Description: Inhibition of human recombinant 11beta-HSD1 expressed in HEK293 cells assessed as reduction of cortisone to cortisol conversion by scintillation counting. It counts as cell-based.
In assay [2] the target is T2, 11-beta-hydroxysteroid dehydrogenase type 2 (Homo sapiens) (UniProt P80365).
T2 sequence (whole entry): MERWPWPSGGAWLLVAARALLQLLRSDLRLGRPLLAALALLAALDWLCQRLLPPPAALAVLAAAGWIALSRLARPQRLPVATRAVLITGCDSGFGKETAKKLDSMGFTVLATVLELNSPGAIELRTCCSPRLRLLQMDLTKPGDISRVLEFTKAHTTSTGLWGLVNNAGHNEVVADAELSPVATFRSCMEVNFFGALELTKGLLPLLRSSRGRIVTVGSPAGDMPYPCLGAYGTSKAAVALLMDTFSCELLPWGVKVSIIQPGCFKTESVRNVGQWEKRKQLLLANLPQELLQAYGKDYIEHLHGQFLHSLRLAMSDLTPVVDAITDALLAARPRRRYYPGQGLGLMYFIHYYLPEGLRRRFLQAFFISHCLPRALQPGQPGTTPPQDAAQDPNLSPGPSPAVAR
In words: Inhibition of human recombinant 11beta-HSD2 expressed in HEK293 cells assessed as reduction of […] conversion at 20 uM by scintillation counting. Type of assay: cell-based.

The target in assay [3] is T1, 11-beta-hydroxysteroid dehydrogenase 1. In words: Inhibition of human recombinant 11beta-HSD1 expressed in HEK293 cells assessed as partial reduction of cortisone to cortisol conversion at 1.5 uM by scintillation counting. Type of assay: cell-based.
Target sequence in this assay (P28845 whole entry, looked up): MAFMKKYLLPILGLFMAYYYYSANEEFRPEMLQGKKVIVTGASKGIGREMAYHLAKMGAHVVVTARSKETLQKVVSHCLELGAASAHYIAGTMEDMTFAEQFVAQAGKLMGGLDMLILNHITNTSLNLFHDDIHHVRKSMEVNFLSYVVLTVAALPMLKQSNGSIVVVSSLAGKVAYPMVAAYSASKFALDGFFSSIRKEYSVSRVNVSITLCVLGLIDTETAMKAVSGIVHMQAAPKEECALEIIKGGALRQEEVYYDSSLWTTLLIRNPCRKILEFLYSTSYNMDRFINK
Assay [4] shares this target. The following applies: HEK293, 4 uM.
Target sequence in this assay (P28845 whole entry, looked up): as above
Description: Inhibition of human recombinant 11beta-HSD1 expressed in HEK293 cells assessed as partial reduction of cortisone to cortisol conversion at 4 uM by scintillation counting
Assay [5] has the same target. In words: Inhibition of human recombinant 11beta-HSD1 expressed in HEK293 cells assessed as partial reduction of cortisone to cortisol conversion at 3 uM by scintillation counting. Type of assay: cell-based.
Target sequence in this assay (P28845 whole entry, looked up): as above
The target in assay [6] is T2, 11-beta-hydroxysteroid dehydrogenase type 2 (Homo sapiens). In words: Inhibition of human recombinant 11beta-HSD2 expressed in HEK293 cells assessed as reduction of […] conversion up to 20 uM by scintillation counting. It counts as cell-based.
The target of assay [7] is T1, 11-beta-hydroxysteroid dehydrogenase 1. In words: Inhibition of human recombinant 11beta-HSD1 expressed in HEK293 cells assessed as reduction of cortisone to cortisol conversion at 20 uM by scintillation counting. Type of assay: cell-based.
Target sequence in this assay (P28845 whole entry, looked up): as above

Activity calls are given as the source filed them. No cut-off for these calls is given here.

As a reminder, the IC50 is the midpoint of a concentration-inhibition curve. Regarding `C[C@@H]1CC[C@]2(C(=O)O)CC[C@]3(C)C(=CC[C@@H]4[C@@]5(C)C[C@@H](O)[C@H](OC(=O)/C=C\c6ccc(O)cc6)C(C)(C)[C@@H]5CC[C@]43C)[C@@H]2[C@]1(C)O`, the IC50 entry in assay [1] (hek293) is on record as “Not Active”. Moreover, the outcome in assay [2] was inactive.
The inhibition is the percentage by which the read-out fell short of the control. For `C[C@H]1[C@H](C)CC[C@]2(C(=O)O)CC[C@]3(C)C(=CC[C@@H]4[C@@]5(C)CC[C@H](O)C(C)(C)[C@@H]5CC[C@]43C)[C@H]12`, the inhibition result in assay [3] is “Active”. The outcome in assay [2] was inactive.
With `COC(=O)[C@]12CC[C@@H](C)[C@@](C)(O)[C@H]1C1=CC[C@@H]3[C@@]4(C)C[C@@H](O)[C@H](O)C(C)(C)[C@@H]4CC[C@@]3(C)[C@]1(C)CC2` [TORMENTIC ACID METHYL ESTER], in assay [1] (read-out: IC50), the half-inhibitory concentration (IC50) was found to be 9400 nM. Further, the result in assay [2] was inactive. In addition, the inhibition entry in assay [4] is “Active”.
On to `C[C@H]1[C@H](C)CC[C@]2(C(=O)O)CC[C@]3(C)C(=CC(=O)[C@@H]4[C@@]5(C)CC[C@H](O)C(C)(C)[C@@H]5CC[C@]43C)[C@H]12`, for which, in assay [1] (read-out: IC50), the IC50 was found to be 2060 nM.
In the case of `C[C@H]1[C@H](C)CC[C@]2(CO)CC[C@]3(C)C(=CC[C@@H]4[C@@]5(C)CC[C@H](O)C(C)(C)[C@@H]5CC[C@]43C)[C@H]12` [UVAOL], the IC50 result in assay [1] (hek293) is “Not Active”. For the same compound, the result in assay [2] was inactive.
Regarding `C[C@H]1[C@H](C)CC[C@]2(C(=O)O)CC[C@]3(C)C(=CC[C@@H]4[C@@]5(C)C[C@@H](O)C(=O)C(C)(C)[C@@H]5CC[C@]43C)[C@H]12`, the outcome in assay [2] was inactive. Besides, in assay [5], the inhibition entry was “Active”.
With `COC(=O)[C@]12CC[C@@H](C)[C@H](C)[C@H]1C1=CC[C@@H]3[C@@]4(C)C[C@@H](O)[C@H](O)C(C)(C)[C@@H]4CC[C@@]3(C)[C@]1(C)CC2` [COROSOLIC ACID METHYL ESTER], the IC50 entry in assay [1] (hek293) is recorded as “Not Active”. The outcome in assay [2] was inactive.
In the same order, the values of `C[C@@H]1CC[C@]2(C(=O)O)CC[C@]3(C)C(=CC[C@@H]4[C@@]5(C)C[C@@H](O)[C@H](OC(=O)/C=C/c6ccc(O)cc6)C(C)(C)[C@@H]5CC[C@]43C)[C@@H]2[C@]1(C)O` are “Not Active” and “inactive”.
As to `C[C@H]1[C@H](C)CC[C@]2(C(=O)O)CC[C@]3(C)C(=CC[C@@H]4[C@@]5(C)C[C@@H](O)[C@H](O)C(C)(C)[C@@H]5CC[C@]43C)[C@H]12` [COROSOLIC ACID], the inhibition entry in assay [1] was “Dose-dependent effect”. Also, the IC50 in assay [1] (read-out: IC50) is 810 nM. The inhibition entry in assay [6] is “inactive”.
With `C[C@@H]1CC[C@]2(C(=O)O)CC[C@]3(C)C(=CC[C@@H]4[C@@]5(C)C[C@@H](O)[C@H](O)C(C)(C)[C@@H]5CC[C@]43C)[C@@H]2[C@]1(C)O` [TOMENTIC ACID], in assay [1] (hek293), the IC50 result is “Not Active”. In addition, the outcome in assay [2] was inactive.
As to `COC(=O)[C@]12CC[C@@H](C)[C@H](C)[C@H]1C1=CC[C@@H]3[C@@]4(C)C[C@@H](O)[C@@H](O)C(C)(C)[C@@H]4CC[C@@]3(C)[C@]1(C)CC2`, the IC50 in assay [1] (read-out: IC50) turned out to be 5200 nM. Also, the outcome in assay [2] was inactive.
Take `COC(=O)[C@]12CC[C@@H](C)[C@H](C)[C@H]1C1=CC[C@@H]3[C@@]4(C)CC[C@H](O)C(C)(C)[C@@H]4CC[C@@]3(C)[C@]1(C)CC2`: the outcome in assay [2] was inactive.
Regarding `C[C@H]1[C@H](C)CC[C@]2(C)CC[C@]3(C)C(=CC(=O)[C@@H]4[C@@]5(C)CC[C@@H](O)[C@](C)(C(=O)O)[C@@H]5CC[C@]43C)[C@H]12`, the inhibition in assay [7] was 52%; in assay [2], 68%.
On to `CC(=O)O[C@H]1CC[C@]2(C)[C@H]3C(=O)C=C4[C@@H]5[C@@H](C)[C@H](C)CC[C@]5(C(=O)O)CC[C@@]4(C)[C@]3(C)CC[C@H]2C1(C)C` [11-OXOURSOLIC ACID ACETATE], for which the half-maximal inhibitory concentration (IC50) in assay [1] (read-out: IC50) worked out at 1350 nM.
Turning to `COC(=O)[C@]12CCC(C)(C)C[C@H]1C1=CC[C@@H]3[C@@]4(C)C[C@@H](O)[C@H](O)C(C)(C)[C@@H]4CC[C@@]3(C)[C@]1(C)CC2` [MASLINIC ACID METHYL ESTER], in assay [1] (hek293), the IC50 result is “Not Active”. Also, in assay [2], the result was inactive.
For `C[C@H](CC(=O)C[C@@H](C)[C@H]1C[C@H](O)[C@@]2(C)C3=C(C(=O)C[C@]12C)[C@@]1(C)CCC(=O)C(C)(C)[C@@H]1C[C@@H]3O)C(=O)O`, the results for the inhibition in assay [7] and in assay [2] were 46% and 76%, respectively.
In the case of `CC[C@H](CC[C@@H](C)[C@H]1CC[C@H]2[C@@H]3CC=C4C[C@@H](O)CC[C@]4(C)[C@H]3CC[C@]12C)C(C)C`, the result in assay [2] was inactive.
Regarding `CC(=O)O[C@@H]1CC[C@@]2(C)[C@@H](CC[C@]3(C)[C@@H]2C(=O)C=C2[C@@H]4[C@@H](C)[C@H](C)CC[C@]4(C)CC[C@]23C)[C@@]1(C)C(=O)O`, the results for the inhibition in assay [7] and in assay [2] were 63% and 52%, respectively.
